Source: publication PMC6153520, “Proteasome inhibition and mechanism of resistance to a synthetic, library-based hexapeptide” (Investigational New Drugs, 2018)
Where a SMILES comes first, the peptide text is derived from it. [ ]: non-standard residue; d: D form. The star is where a group is joined. His(τ-Bzl) = N[C@@H](Cc1cn(Cc2ccccc2)cn1)C(=O)O; Nle = CCCC[C@H](N)C(=O)O; NHBn = c1ccc(CN*)cc1; Bn = c1ccc(C*)cc1; OtBu = CC(C)(C)O*; tBu = CC(C)(C)*

Legend:
[1] = target: T1, proteasome purified from bovine liver (Bos taurus, UniProt Q32KL2); experiment: 4A6 cleavage assay (MALDI-TOF); format: biochemical; settings: 1 μg proteasome, 1 μg 4A6, pH 8.5, 45 °C, 16 h
T1 construct: Proteasome was purified from bovine liver as described previously; from tissue; host or cells: bovine liver
Procedure: Proteasome was purified from bovine liver as described previously. For digestion assays, 1 μg proteasome was incubated with 1 μg 4A6 in 50 μl of 50 mM Tris-HCl buffer pH 8.5 at 45 °C for 16 h. Subsequently, the reaction mixture was lyophilized and peptides purified using reversed-phase ZipTip®C18 tips (Millipore). The purified peptide mixture was mixed in a 1:1 ratio with 10 mg/ml 2,5-dihydroxybenzoic acid (DHB, Bruker Daltonik) matrix solution in 0.1% TFA and spotted onto a MALDI (matrix assisted laser desorption/ ionization) target plate. MALDI-TOF analysis was performed on an Autoflex, linear MALDI-TOF-MS (Bruker Daltonik GmbH, Bremen, Germany). Spectra were analyzed with flexAnalysis software (Bruker Daltonik).

[2] = test system: caspase-like proteasome activity; experiment: Proteasome activity in THP1 cell extracts (fluorogenic substrate); format: biochemical, human; settings: 1–100 μM, 1 h exposure
Procedure: (§1) Chymotrypsin-like, trypsin-like and caspase-like proteolytic activities of the proteasome were determined in freshly prepared cell lysates as described previously. Five million untreated or bortezomib-exposed THP1 cells were washed 3 times with ice-cold PBS and pelleted by centrifugation (5 min, 12,000 RPM, 4 °C). Cell pellets were then resuspended in an ATP-containing lysis buffer; 10 mM Tris-HCl buffer (pH 7.8) containing 5 mM ATP, 0.5 mM DTT and 5 mM MgCl2, and kept on ice for 10 min. For complete lysis, cells were sonicated (MSE sonicator, amplitude 7, for 3 × 5 s with 20 s time intervals at 4 °C) followed by centrifugation (5 min, 12,000 RPM, 4 °C) to remove cell debris. The supernatant was collected and protein concentration was determined using the Bio-Rad protein assay. […] The release of amc (7-amino-4-methyl-coumarin) was monitored online over a 2-h time period at 37 °C with 5 min intervals. Fluorescence was measured on a Tecan SpectraFluor apparatus (Giessen, The Netherlands) using excitation and emission wavelengths of 360 and 465 nm, respectively. Proteolytic activity was calculated from the slopes of the linear portion of the curves. All results were expressed as percentage relative to untreated THP1/WT cells (100%). […]

[3] = test system: trypsin-like proteasome activity; experiment: as above; format: biochemical, human; settings: 1–100 μM, 1 h exposure
Procedure: as §1

[4] = target: T2, chymotrypsin-like proteasome activity (Homo sapiens, UniProt P28074); experiment: Proteasome-Glo cell-based assay in intact THP1 cells
T2 construct: chymotrypsin-like proteasome activity in intact THP1 cells after 1 h exposure; endogenous in cells; host or cells: THP1 (wild type)

[5] = test system: bortezomib-resistant THP1 cell lines; experiment: Growth inhibition assay, cross-resistance; format: cell-based, human; settings: relative to THP1/WT; 72 h growth inhibition
Procedure: (§2) Human monocytic/macrophage THP1 cells (ATTC, Manassas, USA) were cultured in RPMI-1640 medium supplemented with 5% fetal calf serum, 20 mM HEPES, 2 mM glutamine and 100 μg/ml penicillin/ streptomycin at 5% CO2 and 37 °C. Cell cultures were seeded at a density of 3 × 10^5 cells/ml and refreshed twice weekly. […] Some specific experiments also included THP1/BTZ100 cells that were cultured in the absence of BTZ for 6 months (further designated as THP1/BTZ (−100) cells). Mouse thymoma EL4 and human multiple myeloma H929 cells were cultured in RPMI-1640 medium supplemented with 8% fetal calf serum and 100 μg/ml penicillin/streptomycin at 5% CO2 and 37 °C.
(§3) Evaluation of drug sensitivity was carried out as described before. Cells were seeded at an initial density of 1.25 × 10^5 cells/ml in individual wells of a 24-well plate containing up to 50 μl of drug solutions. Inhibition of cell growth was determined after 72 h of incubation at 37 °C by determining the number of viable cells […] using trypan blue exclusion. The drug concentration required to inhibit cell growth by 50% compared to untreated controls was defined as the IC50.

proteasome β5 subunit = target: T3, proteasome β5 subunit (Mus musculus, UniProt O55234); experiment: Proteasome affinity labelling in EL4 cells; format: cell-based; settings: EL4 cells pre-exposed for 2–24 h
T3 construct: Activity probing of constitutive and immunoproteasome β-subunits in EL4 cells; endogenous in cells; host or cells: EL4 mouse thymoma cells
Procedure: Proteasome activity profiling assays were performed as described using a close analog of the BodipyFL probe. Briefly, mouse EL4 thymoma cells were incubated at 37 °C for 2 or 24 h with increasing concentrations of 4A6, followed by a 1 h chase with 500 nM probe. […] Cells were harvested and lysed for 30 min in NP40 lysis buffer (50 mM Tris, pH 7.4, 150 mM NaCl, 1% NP40) at 4°C. The Bradford assay was used to measure protein content. Proteins were denatured by boiling in reducing sample buffer and analyzed by 12% SDS-PAGE using NuPAGE pre-cast gels (Invitrogen). Gels were then scanned for fluorescence emission using a ProXPRESS 2D Proteomic imaging system (Perkin Elmer). Images were analyzed using Totallab analysis software (Nonlinear Dynamics, Newcastle upon Tyne, UK). Sypro staining served as a loading control.

THP1/BTZ200 cells = experiment: Apoptosis assay (Annexin-V/7-AAD flow cytometry); format: cell-based, human; settings: 24 h, 4A6 over 0–25 μM
Procedure: Induction of apoptosis was analyzed by flow cytometry using APOPTEST™-FITC A700 (VPS Diagnostics, Hoeven, the Netherlands) according to the instructions of the manufacturer. In short, induction of apoptosis was determined after 24 h’ drug exposure. One million cells were harvested and washed 3 times with ice-cold PBS. The cell pellet was incubated for 30 min with 7-Amino-actinomycin D (7-AAD) on ice followed by incubation with Annexin-V according to the instructions of the manufacturer. Annexin-V (early apoptosis) and 7-AAD (late apoptosis) staining was measured by flow cytometry (Beckton & Dickinson, FACScalibur) and analysed using FCSexpress V3 software (Denovo software, Thornhill, Canada).

THP1/WT = format: cell-based, human
Procedure: as §2, §3

THP1/BTZ (−100) cells = format: cell-based, human; settings: 72 h
Procedure: as §2, §3

THP1/BTZ100 = format: cell-based, human; settings: 72 h
Procedure: as §2, §3

[6] = test system: P-glycoprotein (Pgp/ABCB1); design: method as in PMID 11289130; settings: ref [32]; cited from earlier work

CCCC[C@H](NC(=O)[C@@H](NC(=O)[C@H](Cc1cn(Cc2ccccc2)cn1)NC(=O)[C@@H](NC(C)=O)[C@@H](C)OC(C)(C)C)[C@@H](C)OCc1ccccc1)C(=O)N[C@@H](CCC(=O)OC(C)(C)C)C(=O)NCC(=O)NCc1ccccc1 [4A6, Ac-Thr(tBu)-His(Bzl)-Thr(Bzl)-Nle-Glu(OtBu)-Gly-Bza] (Ac-T(tBu)[His(τ-Bzl)]T(Bn)[Nle]E(OtBu)G-NHBn)
proteolytic cleavage by purified proteasomes [1]: predominantly cleaved at the P4-P5 position | inhibitory effect on caspase-like activity [2]: no inhibitory effect | inhibitory effect on trypsin-like activity [3]: no inhibitory effect | potency fold lower than BTZ, chymotrypsin-like proteasome activity [4]: 28 fold | cross-resistance of bortezomib-resistant cell lines [5]: up to 287 fold | concentration giving complete inhibition of the β5 subunit (proteasome β5 subunit): > 5 µM | induction of apoptosis (THP1/BTZ200 cells): none | IC50 (THP1/WT; 72 h): 0.26 ± 0.06 µM | [Resistance Factor] THP1/WT (THP1/WT; reference value in square brackets): 1 | IC50 (THP1/BTZ (−100) cells): 10 µM | IC50 (THP1/BTZ100): > 25 µM | [Resistance Factor] THP1/BTZ100 (THP1/BTZ100; relative to IC50 in THP1/WT): 117 | ability to reverse efflux pump MDR (ABCB1) [6]: lacked the ability to reverse efflux pump MDR | substrate of MDR efflux transporter ABCB1 [6]: substrate
